Reference: US20250186600A1, “EXCIPIENT COMPOUNDS FOR PROTEIN FORMULATIONS” (Comera Life Sciences, Inc., priority 2020, published 2025)
Structures can show the parent of a compound that is named as a salt.

What was measured:
[1] = test system: ustekinumab; test: Thermal stability at 65 deg C., increase in percent monomer by SE-HPLC (Example 55); format: physicochemical; settings: excipient 5 mg/mL, ustekinumab 1 mg/mL, 20 mM Histidine pH 6.0, 65 deg C., 120 min
Description: Therapeutic proteins are frequently subjected to fluctuations in temperatures, which may lead to changes in their tertiary and secondary structural elements. This leads to aggregation of the protein and a decrease in the active native species.

[2] = test system: ustekinumab-FITC; test: Thermal stability of model ADC at 65° C. by SE-HPLC (Example 56); settings: excipient 5 mg/mL, ustekinumab-FITC 1 mg/mL, 20 mM Histidine pH 6.0, 65° C.
[3] = test system: ustekinumab; test: Accelerated aging at 40° C. for 4 weeks, monomer by SE-HPLC (Example 58); format: physicochemical; settings: excipient 100 mM, ustekinumab 2 mg/mL, 20 mM Histidine pH 6.0, 40° C. for 4 weeks
Procedure: 1 mL of each sample was aliquoted into 2 mL glass vials (West Pharmaceutical services, PA) and incubated at 40° C. for 4 weeks. The aliquots were withdrawn after 0, 1, 2, 3, and 4 weeks.

[4] = Caffeine solubility testing with co-solutes at ambient temperature (Examples 31-32); settings: with co-solute
Procedure: Prepared solutions were used either neat or diluted with deionized water.
A small magnetic stir bar was added to the vial, and the solution was allowed to mix vigorously on a stir plate for about 10 minutes.

[5] = test system: ustekinumab; test: Urea denaturation, Sypro orange fluorescence (Example 44); format: physicochemical; settings: excipient 5 mg/mL, ustekinumab 1 mg/mL, 6M urea, 20 mM histidine pH 6.0, Sypro orange fluorescence
[6] = test system: ustekinumab; test: Thermal stability at 65° C., monomer by SE-HPLC (Example 46); format: physicochemical; settings: excipient 5 mg/mL, ustekinumab 1 mg/mL, 20 mM histidine pH 6.0, incubated at 65° C.
Description: Therapeutic proteins are frequently subjected to fluctuations in temperatures which may lead to changes in tertiary and secondary structural elements. This can lead to aggregation of the protein and decrease the amount of active native protein. […] All excipients used in this Example, listed in Table 47 below, were of the highest purity, and were obtained from Sigma Aldrich (St. Louis, MO) or Cayman Chemical (Ann Arbor, MI).

[7] = test system: omalizumab; test: Freeze/thaw stress (6 cycles), monomer by SE-HPLC (Example 57); format: physicochemical; settings: excipient 100 mM, omalizumab 2 mg/mL, 20 mM Histidine pH 6.0, freeze (−80° C.)/thaw
Procedure: Therapeutic proteins are frequently kept at low temperatures to improve their kinetic stability and minimize structural perturbations that could lead to the aggregation of the protein and a decrease in the active native species. In certain cases, this might be done by freezing the formulation until use. However, the low temperatures, concentration gradients, and ice formation during repeated freezing and thawing can stress the protein. […] The formulations were then aliquoted into 0.5 mL cryovials and frozen at −80° C. for 120 min. The samples were then thawed using a water bath kept at room temperature.

[8] = test system: ustekinumab; test: Stabilization at low pH, Sypro orange fluorescence (Example 45); settings: excipient 5 mg/mL, ustekinumab 1 mg/mL, glycine acidification buffer pH 2.6, Sypro orange fluorescence
[9] = test system: omalizumab; test: Mechanical shear stress (agitation 72 h), absorbance at 350 nm (Example 47); format: physicochemical; settings: excipient 0.5 mg/mL, omalizumab 2 mg/mL, 22° C., 72 h agitation at 300 rpm
Procedure: Excipients that offer protection against shear stresses were identified by agitating therapeutic protein solutions in the presence of the test excipients (listed in Table 48 below) and observing any change in the number of aggregated particles. […] The samples were transferred to a 0.5 mL cryogenic vial (ThermoFisher, Waltham MA) and secured to an orbital shaker. They were then incubated at 22° C. for 72 h with agitation set at 300 rpm. At the end of incubation period, 100 μL of each sample was transferred to 96-well plates, and the absorbance was measured at 350 nm. Any increase in aggregation was measured by observing the changes in light scattering at 350 nm, and comparing those changes to the light scattering at 350 nm of a control formulation (prepared identically to the test samples but without the addition of the excipient). Excipients that are protective in nature were identified by their ability to slow the rate of aggregation and decrease the A350 absorbance value after the agitation step.

[10] = test system: ustekinumab-FITC; test: Mechanical shear stability of ustekinumab-FITC, particle radius by DLS (Example 60); settings: ustekinumab-FITC 1 mg/mL, 20 mM histidine pH 6, 300 rpm 72 h 23° C.
[11] = Table 13; versus 79.7 cP with no excipient
[12] = test system: bovine gamma globulin (BGG); test: Normalized viscosity of BGG with caffeine and a secondary excipient (Example 40); format: physicochemical; settings: Excipient A caffeine 15 mg/mL + Excipient B 14 mg/mL; BGG about 280 mg/mL, 20 mM histidine pH 6, 25° C.
[13] = test system: infliximab; test: Thermal degradation assay at 55° C., normalized monomer loss rate by HP-SEC (Example 51); format: physicochemical; settings: infliximab about 2 mg/mL, 20 mM phosphate pH 7, 55° C.
Procedure: ® infliximab was obtained from the Clinigen Group and reconstituted according to the instructions in the Janssen package insert, resulting in a 10 mg/mL infliximab solution in 5 mM phosphate buffer, pH about 7, with 50 mg/mL sucrose and 0.05 mg/mL polysorbate 80. The reconstituted drug product was then combined 1:1 by volume with 50 mM sodium acetate buffer at pH 5. The resulting solution was then injected onto a small preparative scale cation exchange column (GE Healthcare, Chicago, IL). After the infliximab was loaded onto the column, the column was washed with 10 column volumes of 50 mM sodium acetate buffer, pH 5. The infliximab was then eluted from the column with five column volumes of a 250 mM sodium chloride, 50 mM sodium acetate buffer at pH 5. […] Stock solutions of either 4 or 8 mg/mL infliximab in 20 mM phosphate buffer at pH 7 were then used in subsequent tests.
All excipients used in this Example, listed in Table 52 below, were of the highest purity, and were obtained from Sigma Aldrich (St. Louis, MO) or Cayman Chemical (Ann Arbor, MI). The stock infliximab solutions were mixed with stock excipient solutions containing the excipients listed in Table 52 formulated in 20 mM phosphate buffer, pH 7 to achieve a final infliximab concentration of about 2 mg/mL in each sample. The samples containing the infliximab solutions and the stock excipient solutions were then aliquoted into five 100 μL aliquots in PCR tubes. […] These stressed samples were then analyzed for monomer content by high performance size exclusion chromatography (HP-SEC) using an Agilent 1100 series HPLC equipped with a diode array detector monitoring absorbance at 280 nm. […] For each sample, the monomer peak area was divided by the monomer peak area obtained from an identical but unstressed sample to obtain the percent monomer remaining after exposure to thermal stress. The remaining monomer as a percentage of the unstressed sample was then plotted as a function of incubation time and the absolute value of the slope of a linear fit to the data was recorded as the monomer loss rate.

[14] = test system: nivolumab; test: Thermal stability of nivolumab at 40 C for 4 weeks, SE-HPLC (Example 69); settings: Excipient added at 400 mM; nivolumab 10 mg/ml, 5 mM phosphate pH 7.5, 40 C for 4 weeks
[15] = test system: pembrolizumab; test: Thermal stability of pembrolizumab at 40 C for 4 weeks, SE-HPLC (Example 70); settings: Excipient added at 400 mM; pembrolizumab 10 mg/ml, 5 mM phosphate pH 7.5, 40 C for 4 weeks
[16] = test system: omalizumab; test: Freeze-thaw stability, light scattering at 350 nm (Example 48); format: physicochemical; settings: excipient 5 mg/mL, omalizumab 5 mg/mL, 20 mM histidine pH 6.0, at least 5 freeze (−80° C.)/thaw cycles
[17] = test system: infliximab; test: Thermal stability at 50° C. with caffeine and excipients, SE-HPLC (Example 63); format: physicochemical; settings: excipient 0.5 M, caffeine 50 mM, infliximab 10 mg/mL, 5 mM phosphate pH 7.5, 50° C., 180 min
Procedure: Therapeutic proteins stress leads to aggregation of the protein and a decrease in the active native species. […] The aliquots were withdrawn at 0 min, 90 min and 180 min. […] Diode array detector.

O=C[C@@H](O)[C@H](O)[C@H](O)[C@H](O)CO [Altrose]
% increase in monomer content vs. control [1]: 2.8% | % increase in monomer content vs. control [2]: 63.41%

CC(=O)N[C@@H]1C(O)O[C@H](CO)[C@@H](O)[C@@H]1O (stereo partly drawn) [N-Acetyl Mannosamine]
% increase in monomer content vs. control [1]: 3.1% | % increase in monomer content vs. control [3]: 4.4% | % increase in monomer content vs. control [2]: 23.49%

Cl.NCCc1ccc(O)cc1 [Tyramine HCl]
dissolution of caffeine relative to the reported caffeine solubility limit [4]: at least about four times

O=C(CO)[C@@H](O)[C@H](O)[C@H](O)[C@H](O)CO [Sedoheptulose]
% increased stability [5]: 3.7% | Monomer Fraction % change from control [6]: 3.4% | % increase in monomer content vs. control [1]: 4.1% | % increase in monomer content vs. control [7]: 11.35% | % increase in monomer content vs. control [3]: 7.7% | % change in stability [8]: 2.6% | % increase in monomer content vs. control [2]: 37.68%

C[C@H](CC[C@@H](O[C@@H]1O[C@H](CO[C@@H]2O[C@H](CO)[C@@H](O)[C@H](O)[C@H]2O)[C@@H](O)[C@H](O)[C@H]1O[C@@H]1O[C@H](CO)[C@@H](O)[C@H](O)[C@H]1O)C(C)(C)O)[C@H]1CC[C@@]2(C)[C@@H]3CC=C4[C@@H](CC[C@H](O[C@@H]5O[C@H](CO[C@@H]6O[C@H](CO)[C@@H](O)[C@H](O)[C@H]6O)[C@@H](O)[C@H](O)[C@H]5O)C4(C)C)[C@]3(C)[C@H](O)C[C@]12C [Mogroside V]
% decrease of A350 signal vs. control [9]: 68.2%

C=C1C[C@@]23CC[C@H]4[C@@](C)(CCC[C@@]4(C)C(=O)O[C@@H]4O[C@H](CO)[C@@H](O)[C@H](O)[C@H]4O)[C@@H]2CC[C@]1(O[C@@H]1O[C@H](CO)[C@@H](O)[C@H](O)[C@H]1O)C3 [Rubusoside]
DLS particle radius (nm) after shear test ([10]; excipient 8.3 mg/mL): 6.2 nm

Rebaudioside A
% decrease of A350 signal vs. control [9]: 73.2% | DLS particle radius (nm) after shear test ([10]; excipient 5 mg/mL): 5.8 nm

O=C(O)CC(O)(CC(=O)O)C(=O)O
Viscosity Reduction (%) [11]: 6.0%

Madecassoside
% decrease of A350 signal vs. control [9]: 73.2% | DLS particle radius (nm) after shear test ([10]; excipient 5 mg/mL): 6.4 nm

O=S(=O)([O-])[O-].[Na+].[Na+] [Sodium sulfate]
Normalized Viscosity [12]: 0.78 | Viscosity Reduction (%) [11]: 5.8%

O=P([O-])([O-])[O-].[K+].[K+].[K+] [Potassium phosphate, potassium phosphate tribasic]
Viscosity Reduction (%) [11]: 9.3%

OC[C@H]1O[C@H](O[C@H]2O[C@H](CO)[C@@H](O)[C@H](O)[C@H]2O)[C@H](O)[C@@H](O)[C@@H]1O [trehalose]
Monomer loss rate ([13]; excipient 200 mM): 0.0737 % mon/min | Normalized monomer loss rate ([13]; excipient 200 mM): 0.460 | Monomer loss rate ([13]; excipient 250 mM): 0.0781 % mon/min | Normalized monomer loss rate ([13]; excipient 250 mM): 0.488 | % increase in monomer content vs. control [7]: 77.68% | % change in stability [8]: 2.5%

O=C1O[C@@H]([C@H](O)CO)[C@@H](O)[C@H]1O [Gulonolactone]
% increase in monomer content vs. control [1]: 2.6% | % increase in monomer content vs. control [7]: 10.02% | % increase in monomer content vs. control [2]: 79.95%

C[C@]1(OC(=O)/C=C/c2ccccc2)C[C@@H](O)[C@]2(O)C=CO[C@@H](O[C@@H]3O[C@H](CO)[C@@H](O)[C@H](O)[C@H]3O)[C@@H]21 [Harpagoside]
% decrease of A350 signal vs. control [9]: 69.0%

OC[C@H]1O[C@@](CO)(OC[C@@]2(O[C@H]3O[C@H](CO)[C@@H](O)[C@H](O)[C@H]3O)O[C@H](CO)[C@@H](O)[C@@H]2O)[C@@H](O)[C@@H]1O [Kestose]
% increase in monomer content vs. control [1]: 5.9% | % increase in monomer content vs. control [7]: 71.18% | % increase in monomer content vs. control [3]: 8.4% | % Monomer remaining [14]: 92.4% | % Monomer remaining [15]: 82.6%

OC[C@@H](O)C(O)[C@H](O)CO [Arabitol]
% increased stability [5]: 2.7% | Monomer Fraction % change from control [6]: 6.0% | % reduction in light scattering at 350 nm vs. control [16]: 17.8% | % change in stability [8]: 3.4%

O=C1NS(=O)(=O)c2ccccc21.[Na] [Saccharin, Na, saccharin sodium salt]
dissolution of caffeine relative to the reported caffeine solubility limit [4]: at least about four times

OC[C@H]1O[C@@](CO)(O[C@H]2O[C@H](CO)[C@@H](O)[C@H](O)[C@H]2O)[C@@H](O[C@H]2O[C@H](CO)[C@@H](O)[C@H](O)[C@H]2O)[C@@H]1O [Melzitose]
% increased stability [5]: 4.7% | Monomer Fraction % change from control [6]: 2.0% | % change in stability [8]: 2.0%

O=C(O)[C@H](O)[C@@H](O)[C@H](O[C@@H]1O[C@H](CO)[C@H](O)[C@H](O)[C@H]1O)[C@H](O)CO [Lactobionic acid]
% change compared to control [17]: 20.8% | % Monomer remaining [14]: 89.8% | % Monomer remaining [15]: 82.1%

CO[C@H]1[C@H](O)[C@@H](O)[C@@H](O)[C@H](O)[C@@H]1O [Pinitol]
% change compared to control [17]: 13.1% | % Monomer remaining [14]: 85.6% | % Monomer remaining [15]: 79.2%

CCN(CC)CCOC(=O)c1ccc(N)cc1 [Procaine HCl, reference compound]
dissolution of caffeine relative to the reported caffeine solubility limit [4]: at least about four times

Nc1ncnc2c1ncn2[C@@H]1O[C@H](CO)[C@@H](O)[C@H]1O [Adenosine]
% increased stability [5]: 53.6% | Monomer Fraction % change from control [6]: 8.4% | % change in stability [8]: 32.2%

O=C(CO)[C@@H](O[C@H]1O[C@H](CO)[C@@H](O)[C@H](O)[C@H]1O)[C@H](O)[C@H](O)CO [Turanose]
% increase in monomer content vs. control [1]: 5.8% | % increase in monomer content vs. control [7]: 75.99% | % increase in monomer content vs. control [3]: 8.3% | % increase in monomer content vs. control [2]: 48.06%
